# Values joined by “and” are separate entries in the source; they are usually repeats but may differ in a detail not shown here. Identical values can stand only once. Like-named read-outs stand apart in the source and are kept apart here.
# How the values were obtained:
# [1] = Compound 1 PK dosed Days 1-5 with topotecan; format: in vivo, human; settings: human, plasma, intravenous
# Description: Analysis of plasma concentration versus time data for calculation of standard pharmacokinetic (PK) parameters following intravenous infusion administration was conducted using Phoenix WinNonlin version 6.3 using a nominal infusion duration and scheduled blood sampling times.
# Target lesions = assay: Tumor response, Compound 1 with topotecan; format: in vivo, human; settings: for Cycle 2 Target Lesion Sum: individual subjects
# Description: In Cohort 2 there were 3 subjects who received 1.25 mg/m^2 of topotecan once daily on Days 1 to 5. In Cohort 3 there were 4 subjects who received 0.75 mg/m^2 of topotecan once daily on Days 1 to 5. […] Target lesions were summed and response tabulated as follows: […]
# [2] = Compound 1 200 mg/m^2 with topotecan, 2 to 4 cycles
structure (smiles),measurement,setting,value
"CN1CCN(c2ccc(Nc3ncc4cc5n(c4n3)C3(CCCCC3)CNC5=O)nc2)CC1 [Compound 1, 2′-((5-(4-methylpiperazin-1-yl)pyridin-2-yl)amino)-7′,8′-dihydro-6′H-spiro[cyclohexane-1,9′-pyrazino[1′,2′:1,5]pyrrolo[2,3-d]pyrimidin]-6′-one]",half-life,"[1]; 200 mg/m^2 with Topotecan 1.25 mg/m^2 (Cohort 2), Day 1, Median, read-out: t½ (converted)",8.67 h
same,AUC(0-inf),"[1]; 200 mg/m^2 with Topotecan 1.25 mg/m^2 (Cohort 2), Day 1, individual subjects, read-out: AUCinf",2320 ng·h/mL
same,Cmax,"[1]; 200 mg/m^2 with Topotecan 1.25 mg/m^2 (Cohort 2), Day 1, individual subjects, read-out: Cmax",1000 ng/mL
same,half-life,"[1]; 200 mg/m^2 with Topotecan 1.25 mg/m^2 (Cohort 2), Day 1, individual subjects, read-out: t½ (converted)",6.14 h
same,Cmax,"[1]; 200 mg/m^2 with Topotecan 1.25 mg/m^2 (Cohort 2), Day 4, Geometric Mean, read-out: Cmax",739 ng/mL
same,half-life,"[1]; 200 mg/m^2 with Topotecan 1.25 mg/m^2 (Cohort 2), Day 4, Geometric Mean, read-out: t½ (converted)",8.84 h
same,Cmax,"[1]; 200 mg/m^2 with Topotecan 1.25 mg/m^2 (Cohort 2), Day 4, Mean, read-out: Cmax",752 ng/mL
same,half-life,"[1]; 200 mg/m^2 with Topotecan 1.25 mg/m^2 (Cohort 2), Day 4, Mean, read-out: t½ (converted)",8.95 h
same,half-life,"[1]; 200 mg/m^2 with Topotecan 1.25 mg/m^2 (Cohort 2), Day 4, Median, read-out: t½ (converted)",9.1 h
same,Cmax,"[1]; 200 mg/m^2 with Topotecan 1.25 mg/m^2 (Cohort 2), Day 4, individual subjects, read-out: Cmax",904 ng/mL
same,half-life,"[1]; 200 mg/m^2 with Topotecan 1.25 mg/m^2 (Cohort 2), Day 4, individual subjects, read-out: t½ (converted)",7.15 h
same,AUC(0-inf),"[1]; 200 mg/m^2 with Topotecan […]^2 (Cohort 1), Day 1, Geo. Mean, read-out: AUCinf",2120 ng·h/mL
same,Cmax,"[1]; 200 mg/m^2 with Topotecan […]^2 (Cohort 1), Day 1, Geo. Mean, read-out: Cmax",932 ng/mL
same,half-life,"[1]; 200 mg/m^2 with Topotecan […]^2 (Cohort 1), Day 1, Geo. Mean, read-out: t½ (converted)",5.91 h
same,AUC(0-inf),"[1]; 200 mg/m^2 with Topotecan […]^2 (Cohort 1), Day 1, Mean, read-out: AUCinf",2140 ng·h/mL
same,Cmax,"[1]; 200 mg/m^2 with Topotecan […]^2 (Cohort 1), Day 1, Mean, read-out: Cmax",955 ng/mL
same,half-life,"[1]; 200 mg/m^2 with Topotecan […]^2 (Cohort 1), Day 1, Mean, read-out: t½ (converted)",5.92 h
same,AUC(0-inf),"[1]; 200 mg/m^2 with Topotecan […]^2 (Cohort 1), Day 1, Median, read-out: AUCinf",2140 ng·h/mL
same,Cmax,"[1]; 200 mg/m^2 with Topotecan […]^2 (Cohort 1), Day 1, Median, read-out: Cmax",955 ng/mL
same,half-life,"[1]; 200 mg/m^2 with Topotecan […]^2 (Cohort 1), Day 1, Median, read-out: t½ (converted)",5.92 h
same,AUC(0-inf),"[1]; 200 mg/m^2 with Topotecan […]^2 (Cohort 1), Day 1, individual subjects, read-out: AUCinf",1840 ng·h/mL
same,half-life,"[1]; 200 mg/m^2 with Topotecan […]^2 (Cohort 1), Day 1, individual subjects, read-out: t½ (converted)",5.6 h
same,Cmax,"[1]; 200 mg/m^2 with Topotecan […]^2 (Cohort 1), Day 4, Geometric Mean, read-out: Cmax",993 ng/mL
same,half-life,"[1]; 200 mg/m^2 with Topotecan […]^2 (Cohort 1), Day 4, Geometric Mean, read-out: t½ (converted)",7.98 h
same,Cmax,"[1]; 200 mg/m^2 with Topotecan […]^2 (Cohort 1), Day 4, Mean, read-out: Cmax",999 ng/mL
same,half-life,"[1]; 200 mg/m^2 with Topotecan […]^2 (Cohort 1), Day 4, Mean, read-out: t½ (converted)",8.06 h
same,Cmax,"[1]; 200 mg/m^2 with Topotecan […]^2 (Cohort 1), Day 4, Median, read-out: Cmax",999 ng/mL
same,half-life,"[1]; 200 mg/m^2 with Topotecan […]^2 (Cohort 1), Day 4, Median, read-out: t½ (converted)",8.06 h
same,half-life,"[1]; 200 mg/m^2 with Topotecan […]^2 (Cohort 1), Day 4, individual subjects, read-out: t½ (converted)",6.96 h
same,AUC(0-inf),"[1]; Cohort 1 (Topotecan […]^2), Compound 1 200 mg/m^2, Day 1, mean, read-out: AUCinf averaged",2140 ng·h/mL
same,Cmax,"[1]; Cohort 1 (Topotecan […]^2), Compound 1 200 mg/m^2, Day 1, mean, read-out: Cmax averaged",955 ng/mL
same,half-life,"[1]; Cohort 1 (Topotecan […]^2), Compound 1 200 mg/m^2, Day 1, mean, read-out: Half-lives averaged (converted)",5.92 h
same,half-life,"[1]; Cohort 1 (Topotecan […]^2), Compound 1 200 mg/m^2, Day 4, mean, read-out: Half-lives averaged (converted)",8.06 h
same,Cmax,"[1]; Cohort 1 (Topotecan […]^2), Compound 1 200 mg/m^2, Day 4, mean, read-out: average Cmax",999 ng/mL
same,AUC(0-inf),"[1]; Cohort 2 (Topotecan 1.25 mg/m^2), Compound 1 200 mg/m^2, Day 1, mean, read-out: AUCinf averaged",2490 ng·h/mL
same,Cmax,"[1]; Cohort 2 (Topotecan 1.25 mg/m^2), Compound 1 200 mg/m^2, Day 1, mean, read-out: Cmax averaged",904 ng/mL
same,half-life,"[1]; Cohort 2 (Topotecan 1.25 mg/m^2), Compound 1 200 mg/m^2, Day 1, mean, read-out: Half-lives averaged (converted)",7.87 h
same,half-life,"[1]; Cohort 2 (Topotecan 1.25 mg/m^2), Compound 1 200 mg/m^2, Day 4, mean, read-out: Half-lives averaged (converted)",8.95 h
same,Cmax,"[1]; Cohort 2 (Topotecan 1.25 mg/m^2), Compound 1 200 mg/m^2, Day 4, mean, read-out: average Cmax",752 ng/mL
same,concentration at 24.5 h,"[1]; Cohort 2 (Topotecan 1.25 mg/m^2), Day 1, mean, read-out: concentration at 24.5 hours after the start of infusion, averaging",19.5 ng/mL
same,concentration at 24.5 h,"[1]; Cohort 2 (Topotecan 1.25 mg/m^2), Day 4, mean, read-out: concentration at 24.5 hours after dosing, averaged",22.7 ng/mL
same,AUC(0-inf),"[1]; Cohort 3 (Topotecan 0.75 mg/m^2), Compound 1 200 mg/m^2, Day 1, mean, read-out: AUCinf averaged",2200 ng·h/mL
same,Cmax,"[1]; Cohort 3 (Topotecan 0.75 mg/m^2), Compound 1 200 mg/m^2, Day 1, mean, read-out: Cmax averaged",1140 ng/mL
same,half-life,"[1]; Cohort 3 (Topotecan 0.75 mg/m^2), Compound 1 200 mg/m^2, Day 1, mean, read-out: Half-lives averaged (converted)",7.4 h
same,half-life,"[1]; Cohort 3 (Topotecan 0.75 mg/m^2), Compound 1 200 mg/m^2, Day 4, mean, read-out: Half-lives averaged (converted)",8.81 h
same,Cmax,"[1]; Cohort 3 (Topotecan 0.75 mg/m^2), Compound 1 200 mg/m^2, Day 4, mean, read-out: average Cmax",1330 ng/mL
same,concentration at 24.5 h,"[1]; Cohort 3 (Topotecan 0.75 mg/m^2), Day 1, mean, read-out: concentration at 24.5 hours after the start of infusion, averaging",13.3 ng/mL
same,concentration at 24.5 h,"[1]; Cohort 3 (Topotecan 0.75 mg/m^2), Day 4, mean, read-out: concentration at 24.5 hours after dosing, averaged",18.2 ng/mL
same,Cycle 2 Target Lesion Sum,Target lesions; Compound 1 200 mg/m^2 followed by 1.25 mg/m^2 Topotecan,22 and 123
same,Cycle 2 Target Lesion Sum,Target lesions; Compound 1 200 mg/m^2 followed by .75 mg/m^2 Topotecan,157
same,subjects with partial responses,Target lesions; [2],3 subjects
same,subjects with stable disease,Target lesions; [2],3 subjects
